Measurements: patent publication US11970505B1, “Pyridino-2,16-dioxapentacyclo[7.7.5.01,21.03,8.010,15]henicosa3(8),10,12,14-tetraene-7,20-dione as an antimicrobial compound” (KING FAISAL UNIVERSITY, priority 2023, dated 2024)

Assays:
Format in all cases: cell-based
Settings in all cases: after 10, 20, 40 and 60 minutes at all dilutions 1:100, 1:200, 1:400, and 1:800
Pseudomonas aeruginosa = test: Antimicrobial activity by agar dilution, Ps. aeruginosa
Procedure: (§1) The antibacterial properties of the synthesized compound (pyridino-2,16-dioxapentacyclo[7.7.5.0^1,21.0^3,8.0^10,15]henicosa3(8),10,12,14-tetraene-7,20-dione) were studied by the method of agar dilution. Test solutions of each compound was prepared in concentration of 1% using dimethylformamide as a solvent. Then they were diluted in physiological solution to obtain the final experimental dilutions of 1:100, 1:200, 1:400, and 1:800. The effect of these substances were compared with furacillin in a controllable study. The testing microbes used were gram positive bacteria Staphylococcus aureus, gram negative bacteria Pseudomonas aeruginosa, Escherichia coli, and Candida albicans fungus. The experiments used for this survey were meat-pentonlu agar (EPA) for cultivation of bacteria and Saburo environment for fungi. Each experiment used 1 mL of test solution on each plate for 500 minutes. Two drops of emulsified with microbes feel were added. All experimental samples were taken from the agar after 10, 20, 40, 60 minutes in the environment on the basis of Patrk planted. Bacteria were cultivated at a temperature of 37° C. for 1 day and the mushroom was kept in a thermostat for […] at a temperature of 28° C. Then results were checked. Those of control and the antimicrobial activity for the synthesized compounds are listed in Table 1 below, with furacillin serving as a reference.

Escherichia coli = test: Antimicrobial activity by agar dilution, E. Coli
Procedure: as §1

Candida albicans = test: Antimicrobial activity by agar dilution, Candida albicans
Procedure: as §1

Staphylococcus aureus = test: Antimicrobial activity by agar dilution, St. Aereus
Procedure: as §1

O=C1CCCC2=C1C1c3cccnc3OC3(CCCC(=O)C13)O2 (stereo not shown) [pyridino-2,16-dioxapentacyclo[7.7.5.0^1,21.0^3,8.0^10,15]henicosa3(8),10,12,14-tetraene-7,20-dione]
higher inhibition activity: inhibition activity compared with Furacilin, Pseudomonas aeruginosa (Pseudomonas aeruginosa) | inhibition activity compared with Furacilin, Escherichia coli (Escherichia coli) | inhibition activity compared with Furacilin, Candida albicans (Candida albicans) | inhibition activity compared with Furacilin, Staphylococcus aureus (Staphylococcus aureus)
